The target in assay [1] is CDK2 (UniProt P24941). The experiment in a line: Enzyme Assay.
Assay [2] concerns the target CDK2 (UniProt P24941). Description: Enzyme Assay. This is another data set of the same source.

Regarding `CC(C)c1nn(-c2c(Cl)cccc2Cl)c2nc(Cc3ccc(O)c(CN4CCN(C(C)C)CC4)c3)[nH]c(=O)c12`, the IC50 against CDK2 [1] and against CDK2 [2] was under 100 nM in each case.

With `CN1CCN(NC(=O)Nc2cccc3c2C(=O)c2c-3n[nH]c2-c2ccc(OCCN3CCCC3)cc2)CC1`, the IC50 on CDK2 [1] and on CDK2 [2] was under 100 nM in each case.

Turning to `O=C(Nc1cccc2c1C(=O)c1c-2n[nH]c1-c1ccc(OCCN2CCCC2)cc1)NN1CCOCC1`, the IC50 at CDK2 [1] and against CDK2 [2] was under 100 nM throughout.

As for `CC(C)c1nn(-c2c(Cl)cc(Cl)cc2Cl)c2nc(Cc3ccc(OCCN4CCOCC4)cc3)[nH]c(=O)c12`, the concentration for half-maximal inhibition (IC50) at CDK2 [1] and against CDK2 [2] was under 100 nM throughout.

On to `CC(C)c1nn(-c2c(Cl)cc(Cl)cc2Cl)c2nc(Cc3ccc(NS(=O)(=O)CCCN4CCOCC4)cc3)[nH]c(=O)c12`, for which the 50% inhibitory concentration (IC50) against CDK2 [1] and on CDK2 [2] was under 100 nM throughout.

As for `CC(C)c1nn(-c2c(Cl)cccc2Cl)c2nc(Cc3ccc(OP(=O)(O)O)cc3)[nH]c(=O)c12`, the half-inhibitory concentration (IC50) (as a rule, the concentration that gives 50% inhibition) against CDK2 [1] is under 10 nM; at CDK2 [2], under 100 nM.

As for `O=C(Nc1cccc2c1C(=O)c1c-2n[nH]c1-c1ccc(OCCN(CCO)CCO)cc1)NN1CCOCC1`, the concentration for half-maximal inhibition (IC50) against CDK2 [1] and against CDK2 [2] was under 100 nM each time.

Regarding `CCCN(CCOc1ccc(-c2[nH]nc3c2C(=O)c2c(NC(=O)NN4CCOCC4)cccc2-3)cc1)CC1CC1`, the IC50 at CDK2 [1] and against CDK2 [2] was under 100 nM each time.

Regarding `CC(C)N1CCN(CCOc2ccc(-c3[nH]nc4c3C(=O)c3c(NC(=O)NN5CCOCC5)cccc3-4)cc2)CC1`, the half-maximal inhibitory concentration (IC50) at CDK2 [1] and at CDK2 [2] was under 10 nM in each case.

As to `Cc1noc(COc2ccc(-c3[nH]nc4c3C(=O)c3c(NC(=O)NN5CCOCC5)cccc3-4)cc2)n1`, the IC50 on CDK2 [1] was under 100 nM.

The molecule `Cc1nc(Cc2nc3c(c(C(C)C)nn3-c3c(Cl)cccc3Cl)c(=O)[nH]2)cs1` registered an IC50 against CDK2 [1] of under 10 nM.

Consider `CN(C)C(=O)COc1ccc(-c2[nH]nc3c2C(=O)c2c(NC(=O)NN4CCOCC4)cccc2-3)cc1`, for which the IC50 against CDK2 [1] was under 10 nM.

The molecule `CCN(CCO)S(=O)(=O)c1cc(Cl)c(-n2nc(C(C)C)c3c(=O)[nH]c(Cc4ccc(OCCN5CCOCC5)cc4)nc32)c(Cl)c1` showed an IC50 at CDK2 [1] of under 100 nM.

`O=C(Nc1cccc2c1C(=O)c1c-2n[nH]c1-c1ccc(OCC(=O)N2CCOCC2)cc1)NN1CCOCC1` gave a concentration for half-maximal inhibition (IC50) at CDK2 [1] of under 100 nM.

Consider `CN1CCN(NC(=O)Nc2cccc3c2C(=O)c2c-3n[nH]c2-c2ccc(OCCn3cccn3)cc2)CC1`, for which, at CDK2 [1], the half-maximal inhibitory concentration (IC50) is under 100 nM.

At CDK2 [1], `CC(C)c1nn(-c2c(Cl)cccc2Cl)c2nc(Cc3ccc(OCCOC(=O)[C@@H](N)C(C)C)cc3)[nH]c(=O)c12` gave a concentration for half-maximal inhibition (IC50) of under 100 nM.

Consider `CN1CCN(NC(=O)Nc2cccc3c2C(=O)c2c-3n[nH]c2-c2ccc(OCCN3CCOCC3)cc2)CC1`, for which the half-maximal inhibitory concentration (IC50) against CDK2 [1] was under 10 nM; at CDK2 [2] it was under 100 nM.

In turn, `O=C(Nc1cccc2c1C(=O)c1c(-c3ccc(OCc4nnn[nH]4)cc3)n[nH]c1-2)NN1CCOCC1` showed a half-maximal inhibitory concentration (IC50) against CDK2 [1] of under 100 nM.

Turning to `O=C(Nc1cccc2c1C(=O)c1c-2n[nH]c1-c1ccc(S(=O)(=O)N2CCNCC2)cc1)NN1CCOCC1`, the IC50 against CDK2 [1] was under 100 nM.

On to `CN1CCN(NC(=O)Nc2cccc3c2C(=O)c2c-3n[nH]c2-c2ccc(OCCN(CCO)CCO)cc2)CC1`, for which the IC50 at CDK2 [1] was under 100 nM.

The molecule `Cc1cc(-c2[nH]nc3c2C(=O)c2c(NC(=O)NN4CCOCC4)cccc2-3)ccc1OCCN1CCCC1` gave a half-maximal inhibitory concentration (IC50) against CDK2 [1] of under 100 nM.

At CDK2 [1], `O=C(Nc1cccc2c1C(=O)c1c(-c3ccc(CN4CCOCC4)cc3)n[nH]c1-2)NN1CCOCC1` yielded an IC50 of under 100 nM.

In the case of `CN1CCN(CCOc2ccc(-c3n[nH]c4c3C(=O)c3c(NC(=O)NN5CCN(C)CC5)cccc3-4)c(F)c2)CC1`, the IC50 against CDK2 [1] is under 100 nM.

With `Cc1cc(OCCN2CCCN(C)CC2)ccc1-c1[nH]nc2c1C(=O)c1c(NC(=O)NN3CCN(C)CC3)cccc1-2`, the half-inhibitory concentration (IC50) at CDK2 [1] is under 100 nM.

At CDK2 [1], `O=C(Nc1cccc2c1C(=O)c1c(-c3ccc(OCCN4CCOCC4)cc3Cl)n[nH]c1-2)NN1CCOCC1` showed an IC50 of under 100 nM.
